Patent US12071434B2, “Heterocyclic compound” (Takeda Pharmaceutical Company Limited, priority 2018, dated 2024)

Target: T1, human orexin type 2 receptor (Homo sapiens, UniProt O43614)
T1 construct: expressed in transfected cells
T1 sequence (O43614 1-444): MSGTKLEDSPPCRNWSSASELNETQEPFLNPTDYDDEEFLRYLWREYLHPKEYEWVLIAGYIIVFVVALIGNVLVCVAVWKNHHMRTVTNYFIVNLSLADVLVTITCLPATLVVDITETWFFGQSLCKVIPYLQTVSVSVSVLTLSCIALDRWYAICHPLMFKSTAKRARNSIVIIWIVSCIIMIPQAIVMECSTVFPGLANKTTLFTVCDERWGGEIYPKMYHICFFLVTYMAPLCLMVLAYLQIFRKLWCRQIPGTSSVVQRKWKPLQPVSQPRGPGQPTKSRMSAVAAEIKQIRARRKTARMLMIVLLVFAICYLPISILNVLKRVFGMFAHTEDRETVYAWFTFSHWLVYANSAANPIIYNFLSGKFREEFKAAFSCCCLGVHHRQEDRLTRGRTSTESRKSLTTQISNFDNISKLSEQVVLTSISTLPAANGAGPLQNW
Assay: Measurement of orexin type 2 receptor agonist activity (calcium fluorescence, Fluo-4 AM, FDSS) in CHO cells forcibly expressing human OX2 receptor
Assay type: cell-based
Settings: test compound 3 μM, DMSO = 0%, orexin A (human) 10 nM = 100%
Text: To obtain a cell clone stably expressing human orexin type 2 receptor, human orexin type 2 receptor cDNA was inserted into pcDNA3.1(+) plasmid vector (Invitrogen), and a plasmid DNA for expression of human orexin type 2 receptor (pcDNA3.1(+)/hOX2R) was cloned. The plasmid DNA was introduced into CHO-dhfr cell by an electroporation method, and human orexin type 2 receptor expressing clone cells were obtained by limiting dilution method by using G418 drug resistance as a selection marker.
CHO cells forcibly expressing human OX2 receptor were seeded in each well of 384 well black transparent bottom plate (BD Falcon) at 7,500 cells/well, and cultured for one day in a 5% CO2 incubator at 37° C. After removal of the medium in the cell plate, assay buffer A containing a calcium indicator (HBSS (Thermo Fisher Scientific), 20 mM HEPES (Thermo Fisher Scientific), 0.1% BSA (Sigma-Aldrich), 2.5 μg/mL Fluo-4 AM (DOJINDO Chemical), 0.08% Pluronic F127 (DOJINDO Chemical), 1.25 mM probenecid (DOJINDO Chemical)) was added at 30 μL/well. The plate was stood for 30 min in a 5% CO2 incubator at 37° C., and further stood at room temperature for 30 min. A test compound prepared by diluting with assay buffer B (HBSS, 20 mM HEPES, 0.1% BSA) was added at 10 μL/well, and the fluorescence value was measured by FDSSpCELL (Hamamatsu Photonics K.K.) every one sec for 1 min, and thereafter every two sec for 1 min 40 sec. The activity (%) of the test compound was calculated assuming that variation in the fluorescence value when DMSO was added instead of the test compound was 0%, and variation in the fluorescence value when orexin A (human) (PEPTIDE INSTITUTE, INC.) was added at the final concentration of 10 nM was 100%.

Row | 0X2R agonist activity (3 μM, %) [%] | Structure (SMILES)
1 | 85 | CC(C)n1cnc2c(c1=O)[C@@H](Cc1cccc(-c3ccccc3)c1F)[C@@H](NS(C)(=O)=O)[C@H](F)[C@H]2F (racemic) [Example 198, rac-N-[(5R,6R,7S,8S)-7,8-difluoro-5-[(2-fluoro[1,1′-biphenyl]-3-yl)methyl]-4-oxo-3-(propan-2-yl)-3,4,5,6,7,8-hexahydroquinazolin-6-yl]methanesulfonamide]
2 | 101 | Cc1ccc2n(c1=O)[C@@H](Cc1cccc(-c3ccccc3)c1)[C@@H](NS(C)(=O)=O)CC2 (relative stereo) [Example 10, rel-N-{(3S,4S)-4-[([1,1′-biphenyl]-3-yl)methyl]-7-methyl-6-oxo-1,3,4,6-tetrahydro-2H-quinolizin-3-yl}methanesulfonamide]
3 | 87 | CCS(=O)(=O)N[C@H]1CCc2ncn(C(C)C)c(=O)c2[C@H]1Cc1cccc(-c2cccc(F)c2)c1F [Example 170, N-[(5R,6S)-5-[(2,3′-difluoro[1,1′-biphenyl]-3-yl)methyl]-4-oxo-3-(propan-2-yl)-3,4,5,6,7,8-hexahydroquinazolin-6-yl]ethanesulfonamide]
4 | 93 | CC(C)c1nn(C)c2c(c1=O)[C@@H](Cc1csc(-c3ccccc3)n1)[C@@H](NS(C)(=O)=O)C[C@H]2F (racemic) [Example 207, rac-N-[(5R,6S,8R)-8-fluoro-1-methyl-4-oxo-5-[(2-phenyl-1,3-thiazol-4-yl)methyl]-3-(propan-2-yl)-1,4,5,6,7,8-hexahydrocinnolin-6-yl]methanesulfonamide]
5 | 95 | CS(=O)(=O)N[C@H]1CCc2ccc(F)c(=O)n2[C@H]1Cc1cccc(-c2ccccc2)c1 (racemic) [Example 16, rac-N-{(3S,4S)-4-[([1,1′-biphenyl]-3-yl)methyl]-7-fluoro-6-oxo-1,3,4,6-tetrahydro-2H-quinolizin-3-yl}methanesulfonamide]
6 | 104 | CCc1ccc2n(c1=O)[C@@H](Cc1cccc(-c3cc(F)cc(F)c3)c1F)[C@@H](NS(C)(=O)=O)CC2 (racemic) [Example 132, rac-N-{[3S,4S)-7-ethyl-6-oxo-4-[(2,3′,5′-trifluoro[1,1′-biphenyl]-3-yl)methyl]-1,3,4,6-tetrahydro-2H-quinolizin-3-yl}methanesulfonamide]
7 | 96 | CCn1ccc2c(c1=O)[C@@H](Cc1cccc(-c3ccccc3)c1)[C@@H](NS(C)(=O)=O)CC2 (racemic) [Example 47, rac-N-{(7S,8R)-8-[([1,1′-biphenyl]-3-yl)methyl]-2-ethyl-1-oxo-1,2,5,6,7,8-hexahydroisoquinolin-7-yl}methanesulfonamide]
8 | 98 | CC(C)n1cnc2c(c1=O)[C@@H](Cc1ccc(F)c(-c3ccccc3)c1)[C@@H](NS(C)(=O)=O)CC2 (relative stereo) [Example 150, rel-N-[(5R,6S)-5-[(6-fluoro[1,1′-biphenyl]-3-yl)methyl]-4-oxo-3-(propan-2-yl)-3,4,5,6,7,8-hexahydroquinazolin-6-yl]methanesulfonamide]
9 | 92 | CCn1c(C)nc2c(c1=O)C(Cc1cccc(-c3cc(F)cc(F)c3)c1)C(NS(C)(=O)=O)CC2 (racemic) [Example 75]
10 | 106 | CS(=O)(=O)N[C@H]1CCc2ccc(Cl)c(=O)n2[C@H]1Cc1cccc(-c2ccccc2)c1 (racemic) [Example 15, rac-N-{(3S,4S)-4-[([1,1′-biphenyl]-3-yl)methyl]-7-chloro-6-oxo-1,3,4,6-tetrahydro-2H-quinolizin-3-yl}methanesulfonamide]
11 | 103 | CC(C)n1cnc2c(c1=O)[C@@H](Cc1cc(F)cc(-c3ccccc3)c1)[C@@H](NS(C)(=O)=O)CC2 (relative stereo) [Example 141, rel-N-[(5R,6S)-5-[(5-fluoro[1,1′-biphenyl]-3-yl)methyl]-4-oxo-3-(propan-2-yl)-3,4,5,6,7,8-hexahydroquinazolin-6-yl]methanesulfonamide]
